# Results reported in ChEMBL document CHEMBL3124787, “Discovery of novel bis-oxazolidinone compounds as potential potent and selective antitubercular agents” (Bioorg Med Chem Lett, 2014).
# Assays:
# [1] = system: Pseudomonas aeruginosa; experiment: Antibacterial activity against Pseudomonas aeruginosa ATCC 27853 assessed as growth inhibition after 18 hrs by broth microdilution method; assay type: functional; settings: ATCC 27853, 18 h
# [2] = system: Escherichia coli; experiment: Antibacterial activity against Escherichia coli ATCC 25922 assessed as growth inhibition after 18 hrs by broth microdilution method; assay type: functional; settings: ATCC 25922, 18 h
# [3] = system: Mycolicibacterium smegmatis; experiment: Antibacterial activity against Mycobacterium smegmatis assessed as growth inhibition after 18 hrs by broth microdilution method; assay type: functional
# [4] = system: Staphylococcus aureus; experiment: Antibacterial activity against methicillin-resistant Staphylococcus aureus ATCC 43300 assessed as growth inhibition after 18 hrs by broth microdilution method; assay type: functional; settings: ATCC 43300, 18 h
# [5] = system: Staphylococcus aureus; experiment: Antibacterial activity against methicillin-resistant Staphylococcus aureus ATCC 33591 assessed as growth inhibition after 18 hrs by broth microdilution method; assay type: functional; settings: ATCC 33591, 18 h
# [6] = system: Staphylococcus aureus; experiment: Antibacterial activity against methicillin-susceptible Staphylococcus aureus CMCC 26003 assessed as growth inhibition after 18 hrs by broth microdilution method; assay type: functional; settings: CMCC 26003, 18 h
# [7] = system: Staphylococcus aureus; experiment: Antibacterial activity against methicillin-susceptible Staphylococcus aureus ATCC 6538 assessed as growth inhibition after 18 hrs by broth microdilution method; assay type: functional; settings: ATCC 6538, 18 h
# [8] = system: Staphylococcus aureus; experiment: Antibacterial activity against methicillin-susceptible Staphylococcus aureus ATCC 29213 assessed as growth inhibition after 18 hrs by broth microdilution method; assay type: functional; settings: ATCC 29213, 18 h
# [9] = system: Staphylococcus aureus; experiment: Antibacterial activity against methicillin-susceptible Staphylococcus aureus ATCC 25923 assessed as growth inhibition after 18 hrs by broth microdilution method; assay type: functional; settings: ATCC 25923, 18 h
# [10] = Aqueous solubility of the compound by HPLC analysis; assay type: physicochemical
# [11] = Lipophilicity, log P of the compound by HPLC analysis; assay type: physicochemical
# [12] = Selectivity index, ratio of IC50 for African green monkey Vero cells to MIC for Mycobacterium tuberculosis H37RV ATCC 27294; assay type: toxicity, cell-based; settings: read-out: Selectivity Index
# [13] = system: Vero; experiment: Cytotoxicity against African green monkey Vero cells after 48 hrs by MTT assay; assay type: cell-based; settings: Chlorocebus sabaeus
# [14] = system: Mycobacterium tuberculosis; experiment: Antitubercular activity against Mycobacterium tuberculosis H37RV ATCC 27294 assessed as growth inhibition after 3 to 11 days by microdilution method; assay type: functional
Compound,MIC99 [1],MIC99 [2],MIC99 [3],MIC99 [4],MIC99 [5],MIC99 [6],MIC99 [7],MIC99 [8],MIC99 [9],solubility [10],logP [11],selectivity ratio [12],IC50 [13],MIC [14]
CC(=O)NC[C@H]1CN(c2ccc(OC[C@@H](O)CNCCC(C)C)c(F)c2)C(=O)O1,> 32 µg/mL,> 32 µg/mL,> 64 µg/mL,> 32 µg/mL,> 32 µg/mL,> 32 µg/mL,> 32 µg/mL,> 32 µg/mL,> 32 µg/mL,385 µM,1.17,–,–,–
CC(=O)NC[C@H]1CN(c2ccc(OC[C@H](O)CNc3ccncc3)c(F)c2)C(=O)O1,> 32 µg/mL,> 32 µg/mL,> 64 µg/mL,> 32 µg/mL,> 32 µg/mL,> 32 µg/mL,> 32 µg/mL,> 32 µg/mL,> 32 µg/mL,24600 µM,0.02,–,–,–
CC(=O)NC[C@H]1CN(c2ccc(OC[C@@H](O)CNC3CC3)c(F)c2)C(=O)O1,> 32 µg/mL,> 32 µg/mL,32 µg/mL,> 32 µg/mL,> 32 µg/mL,> 32 µg/mL,> 32 µg/mL,> 32 µg/mL,> 32 µg/mL,96000 µM,0.02,–,–,–
CC(=O)NC[C@H]1CN(c2ccc(OC[C@H](O)CNC3CC3)c(F)c2)C(=O)O1,> 32 µg/mL,> 32 µg/mL,> 64 µg/mL,> 32 µg/mL,> 32 µg/mL,> 32 µg/mL,> 32 µg/mL,> 32 µg/mL,> 32 µg/mL,2200 µM,-0.1,–,–,–
CC(=O)NC[C@H]1CN(c2ccc(OC[C@H](O)CNCCC(C)C)c(F)c2)C(=O)O1,> 32 µg/mL,> 32 µg/mL,> 64 µg/mL,> 32 µg/mL,> 32 µg/mL,> 32 µg/mL,> 32 µg/mL,> 32 µg/mL,> 32 µg/mL,7280 µM,1.19,–,–,–
COc1ccc(N2C[C@@H](COc3ccc(N4C[C@H](CNC(C)=O)OC4=O)cc3F)OC2=O)cc1,> 32 µg/mL,> 32 µg/mL,> 64 µg/mL,16 µg/mL,16 µg/mL,8 µg/mL,8 µg/mL,16 µg/mL,16 µg/mL,132 µM,1.91,152,19.1 µg/mL,0.125 µg/mL
COc1ccc(N2C[C@H](COc3ccc(N4C[C@H](CNC(C)=O)OC4=O)cc3F)OC2=O)cc1,> 32 µg/mL,> 32 µg/mL,> 64 µg/mL,4 µg/mL,8 µg/mL,4 µg/mL,4 µg/mL,8 µg/mL,8 µg/mL,211 µM,1.73,428,107 µg/mL,0.25 µg/mL
CC(=O)NC[C@H]1CN(c2ccc(OC[C@@H]3CNC(=O)O3)c(F)c2)C(=O)O1,–,–,–,–,–,–,–,–,–,2720 µM,0.01,–,–,8 µg/mL
CC(=O)NC[C@H]1CN(c2ccc(NC[C@H](O)COc3ccc(N4C[C@H](CNC(C)=O)OC4=O)cc3F)c(F)c2)C(=O)O1,–,–,–,–,–,–,–,–,–,81 µM,0.59,–,–,32 µg/mL
CC(=O)NC[C@H]1CN(c2ccc(OC[C@@H]3CN(c4ccc(N5C[C@H](CNC(C)=O)OC5=O)cc4F)C(=O)O3)c(F)c2)C(=O)O1,–,–,–,–,–,–,–,–,–,333 µM,0.43,–,–,16 µg/mL
O=C1O[C@H](COc2ccccc2F)CN1c1ccccc1,–,–,–,–,–,–,–,–,–,441 µM,3.19,–,–,32 µg/mL
COc1ccc(NC[C@H](O)COc2ccc(N3C[C@H](CNC(C)=O)OC3=O)cc2F)cc1,> 32 µg/mL,> 32 µg/mL,64 µg/mL,8 µg/mL,16 µg/mL,4 µg/mL,4 µg/mL,8 µg/mL,8 µg/mL,56 µM,0.95,–,–,8 µg/mL
COc1ccc(NC[C@@H](O)COc2ccc(N3C[C@H](CNC(C)=O)OC3=O)cc2F)cc1,> 32 µg/mL,> 32 µg/mL,64 µg/mL,16 µg/mL,16 µg/mL,8 µg/mL,8 µg/mL,16 µg/mL,16 µg/mL,1.3 µM,1.15,–,–,–
